Source: paper PMC5703966, “Systemic clearance and brain distribution of carbazole-based cyanine compounds as Alzheimer’s disease drug candidates” (Scientific Reports, 2017)

How the values were obtained:
[1] = Plasma binding by RED device; format: in vitro ADME, mouse; conditions: for plasma binding: mice; for f u,plasma %: mouse plasma, RED device, 4 h, 37 °C; as to all read-outs here: tested at 0.4 µM
Protocol: Nonspecific binding in plasma (f u, plasma), microsomes (f u, mic) and hepatocyte (f u, hep) were determined using the method seen in supplemental information (Supplemental Methods). […]
All validation compounds were incubated at 37 °C over 4 h, and in triplicate. For […]
plasma stability, 10 mM DMSO solutions of SLM and SLOH were diluted to 40 µM (10% DMSO). Plasma […]
shaking water bath (60 oscillations/min approx.). The assay was started by addition of 6 µL aliquots to […]
the plasma (final DMSO incubation concentration 0.1%). […]
MS/MS. Natural logarithm of peak area ratios (compound peak area normalized by IS peak area) were plotted against time and half-life calculated. […]
placed into the sample chamber (indicated by the red ring) with 400 µL of PBS into the adjacent chamber.
The plate was sealed with a self-adhesive lid and incubated at 37 °C on an orbital shaker (1.5 g approx.) for 4 h. Aliquots (100 µL) were removed from each side of the insert, and analyzed after protein precipitation using 4 folds acetonitrile (ACN) containing berberine chloride as internal standard (IS) by LC-MS/MS (Analytical me thod seen below). The experimental procedure outlined in the Thermo Scientific RED device systems brochure was adopted in the present study . […]

Aβ = system: Aβ; design: method as in PMID 22086555; conditions: cited from earlier work
OATP1A2 = target: T1, OATP1A2 (Homo sapiens, UniProt P46721); test: OATP substrate identification, uptake in stably transfected HEK293 cells; conditions: 1 and 10 μM, 10 mins
T1 sequence (P46721 1-670): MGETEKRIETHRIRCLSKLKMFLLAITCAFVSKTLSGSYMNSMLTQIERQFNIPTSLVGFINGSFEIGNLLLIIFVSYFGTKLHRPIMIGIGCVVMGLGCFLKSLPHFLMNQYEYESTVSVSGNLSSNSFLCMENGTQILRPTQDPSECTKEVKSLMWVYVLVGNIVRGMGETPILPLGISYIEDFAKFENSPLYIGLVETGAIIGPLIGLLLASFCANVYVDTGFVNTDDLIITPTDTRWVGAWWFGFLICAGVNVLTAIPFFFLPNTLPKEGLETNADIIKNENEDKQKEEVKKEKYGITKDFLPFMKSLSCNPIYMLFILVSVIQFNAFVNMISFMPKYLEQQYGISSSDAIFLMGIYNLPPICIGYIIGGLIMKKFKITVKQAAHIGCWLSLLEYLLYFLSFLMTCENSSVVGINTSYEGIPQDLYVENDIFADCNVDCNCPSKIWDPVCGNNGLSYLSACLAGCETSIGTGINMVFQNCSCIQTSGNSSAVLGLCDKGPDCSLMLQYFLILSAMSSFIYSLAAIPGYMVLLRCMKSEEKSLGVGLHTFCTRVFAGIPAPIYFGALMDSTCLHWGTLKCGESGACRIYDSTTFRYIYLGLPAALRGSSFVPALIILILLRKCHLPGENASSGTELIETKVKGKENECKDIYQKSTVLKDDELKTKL
Protocol: Daily changes of medium were performed and on the second day after seeding using medium containing 10 mM sodium butyrate.
Stably transfected HEK cells and control vector-transfected HEK293 cells were first washed (3 × 1 mL) with prewarmed HBSS (pH 7.4) and then were incubated with 250 μL of HBSS containing compounds at concentrations of 1 and 10 μM. Cells were incubated for 10 mins at 37 °C for all experiments. After incubation, uptake was stopped by aspirating the incubation solution and washing each well 3 times with 200 μL of ice-old HBSS. The cells were lysed in 150 μL of 1 M NaOH for 30 mins, and then neutralized by adding equal volumes of 1 M HCl.
The following equations (3 and 4) were used to calculate the uptake rates (U, pmol/mg/min) and the OATP1B1, OATP1B3, OATP2B1 and OATP1A2 uptake ratio (UR):3 U=Clysate/P×T 4 UR=UOATP1B1/1B3/2B1/1A2/UHEK293−MOCK where C lysate is the compound concentration in cell lysates. P is the protein concentration in cell lysates. T is the incubation time. U OATP1B1/1B3/2B1/1A2 is the uptake rate obtained in HEK293 stably transfected OATP1B1, OATP1B3, OATP2B1 or OATP1A2 transportation. U HEK293-MOCK is the uptake rate obtained in control vector-transfected HEK293 transportation.

Row | plasma binding [1] | f u,plasma % [1] | uptake by OATP1A2 transfected HEK293 versus WT cells (OATP1A2) | Compound | reduction of Aβ fibrillogenesis in vitro (Aβ)
1 | > 95% | 3.50 ± 0.700^$ % | no significant differences | COCCOCCn1c2ccccc2c2cc(/C=C/c3cc[n+](CCO)c4ccccc34)ccc21 [SLOH, (E)-1-(2-hydroxyethyl)-4-(2-(9-(2-(2-metho-xyethoxy)-ethyl)-9H-carbazol-3-yl)vinyl) quinolin-1-ium chloride] | reduce Aβ fibrillogenesis significantly
2 | > 95% | 1.70 ± 0.380^$ % | no significant differences | COCCOCCn1c2ccccc2c2cc(/C=C/c3cc[n+](C)c4ccccc34)ccc21.[I-] [SLM, (E)-4-(2-(9-(2-(2-methoxyethoxy)ethyl)-9H-carbazol-3-yl)-vinyl)-1-methyl-quinolin-1-iumiodide] | reduce Aβ fibrillogenesis significantly
